Assay results: BindingDB's records for doi:10.1021/jm950372w (Rotta Research Laboratorium, 1996)

Key:
[1] = target: Gastrin/cholecystokinin type B receptor (Cavia porcellus); test: Inhibition of binding of [3H]N-Me-N-Leu-CCK-8 to cholecystokinin type B receptor in guinea pig brain cortex
[2] = target: Gastrin/cholecystokinin type B receptor (Oryctolagus cuniculus); test: In vitro inhibition of gastrin-induced [Ca2+] cytosolic elevation in isolated rabbit parietal cells

Row | SMILES | IC50 [1] [nM] | IC50 [2] [nM]
1 | O=C(CCC(NC(=O)c1cc(Cl)cc(Cl)c1)C(=O)N1CCC2(CCCC2)CC1)NC(Cc1c[nH]c2ccccc12)C(=O)O (stereo not drawn) [2-[5-(8-Aza-spiro[4.5]dec-8-yl)-4-(3,5-dichloro-benzoylamino)-5-oxo-pentanoylamino]-3-(1H-indol-3-yl)-propionic acid] | 49 | 12
2 | O=C(CCC(NC(=O)c1cc(Cl)cc(Cl)c1)C(=O)N1CCC2(CCCC2)CC1)NC(Cc1ccc(O)cc1)C(=O)O (stereo not drawn) [2-[5-(8-Aza-spiro[4.5]dec-8-yl)-4-(3,5-dichloro-benzoylamino)-5-oxo-pentanoylamino]-3-(4-hydroxy-phenyl)-propionic acid] | 320 | 173
3 | O=C(CC(NC(=O)CCC(NC(=O)c1cc(Cl)cc(Cl)c1)C(=O)N1CCC2(CCCC2)CC1)C(=O)O)NCc1ccccc1 (stereo not drawn) [2-[5-(8-Aza-spiro[4.5]dec-8-yl)-4-(3,5-dichloro-benzoylamino)-5-oxo-pentanoylamino]-N-benzyl-succinamic acid] | 385 | 76
4 | O=C(CCC(NC(=O)c1cc(Cl)cc(Cl)c1)C(=O)N1CCC2(CCCC2)CC1)Nc1ccccc1C(=O)O (stereo not drawn) [2-[5-(8-Aza-spiro[4.5]dec-8-yl)-4-(3,5-dichloro-benzoylamino)-5-oxo-pentanoylamino]-benzoic acid] | 443 | 55
5 | CCCCC(NC(=O)CCC(NC(=O)c1cc(Cl)cc(Cl)c1)C(=O)N1CCC2(CCCC2)CC1)C(=O)O (stereo not drawn) [2-[5-(8-Aza-spiro[4.5]dec-8-yl)-4-(3,5-dichloro-benzoylamino)-5-oxo-pentanoylamino]-hexanoic acid] | 1060 | 95
6 | CC(NC(=O)CCC(NC(=O)c1cc(Cl)cc(Cl)c1)C(=O)N1CCC2(CCCC2)CC1)C(=O)O (stereo not drawn) [2-[5-(8-Aza-spiro[4.5]dec-8-yl)-4-(3,5-dichloro-benzoylamino)-5-oxo-pentanoylamino]-propionic acid] | 1250 | 994
7 | O=C(O)CCC(Cc1ccccc1)NC(=O)CCC(NC(=O)c1cc(Cl)cc(Cl)c1)C(=O)N1CCC2(CCCC2)CC1 (stereo not drawn) [4-[5-(8-Aza-spiro[4.5]dec-8-yl)-4-(3,5-dichloro-benzoylamino)-5-oxo-pentanoylamino]-5-phenyl-pentanoic acid] | 157 | 86
8 | O=C(CCC(NC(=O)c1cc(Cl)cc(Cl)c1)C(=O)N1CCC2(CCCC2)CC1)Nc1ccc(C(=O)O)cc1 (stereo not drawn) [4-[5-(8-Aza-spiro[4.5]dec-8-yl)-4-(3,5-dichloro-benzoylamino)-5-oxo-pentanoylamino]-benzoic acid] | 1760 | 568
9 | CN(C(=O)CCC(NC(=O)c1cc(Cl)cc(Cl)c1)C(=O)N1CCC2(CCCC2)CC1)c1ccc(C(=O)O)cc1 (stereo not drawn) [4-{[5-(8-Aza-spiro[4.5]dec-8-yl)-4-(3,5-dichloro-benzoylamino)-5-oxo-pentanoyl]-methyl-amino}-benzoic acid] | 1420 | 1080
10 | O=C(CCC(NC(=O)c1cc(Cl)cc(Cl)c1)C(=O)N1CCC2(CCCC2)CC1)N[C@H](Cc1c[nH]c2ccccc12)C(=O)O (stereo partly drawn) [(R)-2-[5-(8-Aza-spiro[4.5]dec-8-yl)-4-(3,5-dichloro-benzoylamino)-5-oxo-pentanoylamino]-3-(1H-indol-3-yl)-propionic acid] | 40 | 9
11 | O=C(CCC(NC(=O)c1cc(Cl)cc(Cl)c1)C(=O)N1CCC2(CCCC2)CC1)N[C@H](CC1CCCCC1)C(=O)O (stereo partly drawn) [(R)-2-[5-(8-Aza-spiro[4.5]dec-8-yl)-4-(3,5-dichloro-benzoylamino)-5-oxo-pentanoylamino]-3-cyclohexyl-propionic acid] | 612 | 142
12 | O=C(O)CC[C@@H](NC(=O)c1cc(Cl)cc(Cl)c1)C(=O)N1CCC2(CCCC2)CC1 [(R)-5-(8-Aza-spiro[4.5]dec-8-yl)-4-(3,5-dichloro-benzoylamino)-5-oxo-pentanoic acid] |  | 1220
